In patent publication US20220168427A1 (Ranok Therapeutics (Hangzhou) Co. Ltd., priority 2019, published 2022) one finds IC50 data, which are given here for 14 compounds.

In series [1] the target is T1, BRD4 (BD1+BD2) (Homo sapiens, UniProt O60885).
T1 construct: 1.8 μg/ml recombinant BRD4 (BD1+BD2 domains) protein
As to conditions: read-out: BRD4 Binding Potency.

Series [2] concerns MV4-11 cells. The series can be described thus: MV4-11 Cell Cytotoxicity Assay. As to conditions: human, MV4-11 cells, CCK-8. The series is classed as cell-based, human. From the text: % Inhibition=100−(D−B)/(S−B)*100%.
S: The absorbance of the maximum (cells with DMSO)
B: The absorbance of the minimum (medium with DMSO)

Series [3] deals with HSP90α (Homo sapiens, UniProt P07900). The series can be described thus: HSP90α Binding Fluorescent Polarization (FP) Assay. Particulars: competition with FITC-geldanamycin; read-out: HSP90 Binding Potency. An outline of the steps: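 Duplicate wells held BSA buffer, FITC-geldanamycin tracer, compound (3-fold dilution plate spanning 40 μM–2.0 nM) and recombinant protein diluted to 28 μg/ml before addition. Polarization read at 30, 60 and 120 min, 25 °C. Background-corrected mP values gave IC50 through a four-parameter inhibitor-response fit.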

pIC50: −log10 of the molar value.

With `Cc1sc2c(c1C)C(c1ccc(Cl)cc1)=N[C@@H](CC(=O)NCC1CN(C(=O)C3CCN(Cc4ccc(-n5c(O)nnc5-c5cc(C(C)C)c(O)cc5O)cc4)CC3)C1)c1nnc(C)n1-2` [Compound 59, 2-((6S)-4-(4-chlorophenyl)-2,3,9-trimethyl-6H-thieno[3,2-f][1,2,4]triazolo[4,3-a][1,4]diazepin-6-yl)-N-((1-(1-(4-(3-(2,4-dihydroxy-5-isopropylphenyl)-5-hydroxy-4H-1,2,4-triazol-4-yl)benzyl)piperidine-4-carbonyl)azetidin-3-yl)methyl)acetamide, trifluoroacetic acid], the pIC50 in series [1] and in series [3] was 6.00 to 7.00 in each case. Also, in series [2], the IC50 at 72 h is < 100 nM.
With `Cc1sc2c(c1C)C(c1ccc(Cl)cc1)=N[C@@H](CC(=O)NCC(=O)NCC1CN(C(=O)C3CCN(Cc4ccc(-n5c(O)nnc5-c5cc(C(C)C)c(O)cc5O)cc4)CC3)C1)c1nnc(C)n1-2` [Compound 60, 2-((6S)-4-(4-chlorophenyl)-2,3,9-trimethyl-6H-thieno[3,2-f][1,2,4]triazolo[4,3-a][1,4]diazepin-6-yl)-N-(2-(((1-(1-(4-(3-(2,4-dihydroxy-5-isopropylphenyl)-5-hydroxy-4H-1,2,4-triazol-4-yl)benzyl)piperidine-4-carbonyl)azetidin-3-yl)methyl)amino)-2-oxoethyl)acetamide, trifluoroacetic acid], the pIC50 in series [1] and in series [3] was 6.00 to 7.00 each time. For the same compound, in series [2], the IC50 at 72 h is < 100 nM.
As to `Cc1sc2c(c1C)C(c1ccc(Cl)cc1)=N[C@@H](CCNCCOc1ccc(-n3c(O)nnc3-c3cc(C(C)C)c(O)cc3O)cc1)c1nnc(C)n1-2` [Compound 62, (S)-4-(4-(4-(2-((2-(4-(4-chlorophenyl)-2,3,9-trimethyl-6H-thieno[3,2-f][1,2,4]triazolo[4,3-a][1,4]diazepin-6-yl)ethyl)amino)ethoxy)phenyl)-5-hydroxy-4H-1,2,4-triazol-3-yl)-6-isopropylbenzene-1,3-diol, trifluoroacetic acid], the pIC50 is < 6.00 in series [1] and 6.00 to 7.00 in series [3]. Further, in series [2], the IC50 at 72 h fell in the range of 100 to 1000 nM.
Taken in the same sequence, the figures for `Cc1sc2c(c1C)C(c1ccc(Cl)cc1)=N[C@@H](CCNCCOCCOc1ccc(-n3c(O)nnc3-c3cc(C(C)C)c(O)cc3O)cc1)c1nnc(C)n1-2` [Compound 63, (S)-4-(4-(4-(2-(2-((2-(4-(4-chlorophenyl)-2,3,9-trimethyl-6H-thieno[3,2-f][1,2,4]triazolo[4,3-a][1,4]diazepin-6-yl)ethyl)amino)ethoxy)ethoxy)phenyl)-5-hydroxy-4H-1,2,4-triazol-3-yl)-6-isopropylbenzene-1,3-diol, trifluoroacetic acid] were 6.00 to 7.00, 6.00 to 7.00 and 100 to 1000 nM.
Consider `Cc1sc2c(c1C)C(c1ccc(Cl)cc1)=N[C@@H](CCNCC1CCN(C(=O)C3CCN(Cc4ccc(-n5c(O)nnc5-c5cc(C(C)C)c(O)cc5O)cc4)CC3)CC1)c1nnc(C)n1-2` [Compound 64, (4-(((2-((6S)-4-(4-chlorophenyl)-2,3,9-trimethyl-6H-thieno[3,2-f][1,2,4]triazolo[4,3-a][1,4]diazepin-6-yl)ethyl)amino)methyl)piperidin-1-yl)(1-(4-(3-(2,4-dihydroxy-5-isopropylphenyl)-5-hydroxy-4H-1,2,4-triazol-4-yl)benzyl)piperidin-4-yl)methanone, trifluoroacetic acid], for which the pIC50 in series [1] and in series [3] was 6.00 to 7.00 each time. In series [2], this compound displayed an IC50 at 72 h of 100 to 1000 nM.
In the case of `Cc1sc2c(c1C)C(c1ccc(Cl)cc1)=N[C@@H](CCN(C)CCOc1ccc(-n3c(O)nnc3-c3cc(C(C)C)c(O)cc3O)cc1)c1nnc(C)n1-2` [Compound 65, (S)-4-(4-(4-(2-((2-(4-(4-chlorophenyl)-2,3,9-trimethyl-6H-thieno[3,2-f][1,2,4]triazolo[4,3-a][1,4]diazepin-6-yl)ethyl)(methyl)amino)ethoxy)phenyl)-5-hydroxy-4H-1,2,4-triazol-3-yl)-6-isopropylbenzene-1,3-diol], the pIC50 in series [1] was < 6.00; in series [3], 6.00 to 7.00. Further, the IC50 at 72 h in series [2] fell in the range of 100 to 1000 nM.
For `Cc1sc2c(c1C)C(c1ccc(Cl)cc1)=N[C@@H](CCNCC1CCN(C(=O)C3CCN(Cc4ccc(-n5c(O)nnc5-c5cc(C(C)C)c(O)cc5O)cc4)CC3)C1)c1nnc(C)n1-2` (stereo partly drawn) [Compound 66, (3-(((2-((6S)-4-(4-chlorophenyl)-2,3,9-trimethyl-6H-thieno[3,2-f][1,2,4]triazolo[4,3-a][1,4]diazepin-6-yl)ethyl)amino)methyl)pyrrolidin-1-yl)(1-(4-(3-(2,4-dihydroxy-5-isopropylphenyl)-5-hydroxy-4H-1,2,4-triazol-4-yl)benzyl)piperidin-4-yl)methanone, trifluoroacetic acid], the pIC50 is < 6.00 in series [1] and 6.00 to 7.00 in series [3]. This compound also came in with an IC50 at 72 h in series [2] of 100 to 1000 nM.
In the case of `CCc1cc(-c2nnc(O)n2-c2ccc(CN3CCC(C(=O)N4CCC(CNCC[C@@H]5N=C(c6ccc(Cl)cc6)c6c(sc(C)c6C)-n6c(C)nnc65)C4)CC3)cc2)c(O)cc1O` (stereo partly drawn) [Compound 67, (3-(((2-((6S)-4-(4-chlorophenyl)-2,3,9-trimethyl-6H-thieno[3,2-f][1,2,4]triazolo[4,3-a][1,4]diazepin-6-yl)ethyl)amino)methyl)pyrrolidin-1-yl)(1-(4-(3-(5-ethyl-2,4-dihydroxyphenyl)-5-hydroxy-4H-1,2,4-triazol-4-yl)benzyl)piperidin-4-yl)methanone, trifluoroacetic acid], the pIC50 in series [1] and in series [3] was 6.00 to 7.00 in each case. This compound also returned an IC50 at 72 h in series [2] of 100 to 1000 nM.
For the compound `CCc1cc(-c2nnc(O)n2-c2ccc(CN3CCC(C(=O)N4CCC(CNCC[C@@H]5N=C(c6ccc(Cl)cc6)c6c(sc(C)c6C)-n6c(C)nnc65)CC4)CC3)cc2)c(O)cc1O` [Compound 68, (4-(((2-((6S)-4-(4-chlorophenyl)-2,3,9-trimethyl-6H-thieno[3,2-f][1,2,4]triazolo[4,3-a][1,4]diazepin-6-yl)ethyl)amino)methyl)piperidin-1-yl)(1-(4-(3-(5-ethyl-2,4-dihydroxyphenyl)-5-hydroxy-4H-1,2,4-triazol-4-yl)benzyl)piperidin-4-yl)methanone, trifluoroacetic acid], the pIC50 in series [1] and in series [3] was 6.00 to 7.00 each time. In series [2], this compound returned an IC50 at 72 h of 100 to 1000 nM.
In the case of `Cc1sc2c(c1C)C(c1ccc(Cl)cc1)=N[C@@H](CCN(C)CCOCCOc1ccc(-n3c(O)nnc3-c3cc(C(C)C)c(O)cc3O)cc1)c1nnc(C)n1-2` [Compound 71, (S)-4-(4-(4-(2-(2-((2-(4-(4-chlorophenyl)-2,3,9-trimethyl-6H-thieno[3,2-f][1,2,4]triazolo[4,3-a][1,4]diazepin-6-yl)ethyl)(methyl)amino)ethoxy)ethoxy)phenyl)-5-hydroxy-4H-1,2,4-triazol-3-yl)-6-isopropylbenzene-1,3-diol, trifluoroacetic acid], the pIC50 is < 6.00 in series [1] and 6.00 to 7.00 in series [3]. This compound registered an IC50 at 72 h in series [2] of 100 to 1000 nM.
The corresponding values for `Cc1sc2c(c1C)C(c1ccc(Cl)cc1)=N[C@@H](CC(=O)Nc1ccc(NC(=O)C3CCN(Cc4ccc(-n5c(O)nnc5-c5cc(C(C)C)c(O)cc5O)cc4)CC3)cc1)c1nnc(C)n1-2` [Compound 72, N-(4-(2-((6S)-4-(4-chlorophenyl)-2,3,9-trimethyl-6H-thieno[3,2-f][1,2,4]triazolo[4,3-a][1,4]diazepin-6-yl)acetamido)phenyl)-1-(4-(3-(2,4-dihydroxy-5-isopropylphenyl)-5-hydroxy-4H-1,2,4-triazol-4-yl)benzyl)piperidine-4-carboxamide, trifluoroacetic acid] are < 6.00, < 6.00 and < 100 nM.
As to `CCc1cc(-c2nnc(O)n2-c2ccc(CN3CCC(C(=O)N4CCC(CNC(=O)C[C@@H]5N=C(c6ccc(Cl)cc6)c6c(sc(C)c6C)-n6c(C)nnc65)C4)CC3)cc2)c(O)cc1O` (stereo partly drawn) [Compound 77, 2-((6S)-4-(4-chlorophenyl)-2,3,9-trimethyl-6H-thieno[3,2-f][1,2,4]triazolo[4,3-a][1,4]diazepin-6-yl)-N-((1-(1-(4-(3-(5-ethyl-2,4-dihydroxyphenyl)-5-hydroxy-4H-1,2,4-triazol-4-yl)benzyl)piperidine-4-carbonyl)pyrrolidin-3-yl)methyl)acetamide, trifluoroacetic acid], the pIC50 in series [1] is > 7.00; in series [3], 6.00 to 7.00. For the same compound, in series [2], the IC50 at 72 h lay within 100 to 1000 nM.
Consider `Cc1sc2c(c1C)C(c1ccc(Cl)cc1)=N[C@@H](CC(=O)N1CCN(c3ccc(-n4c(O)nnc4-c4cc(C(C)C)c(O)cc4O)cc3)CC1)c1nnc(C)n1-2` [Compound 79, (S)-2-(4-(4-chlorophenyl)-2,3,9-trimethyl-6H-thieno[3,2-f][1,2,4]triazolo[4,3-a][1,4]diazepin-6-yl)-1-(4-(4-(3-(2,4-dihydroxy-5-isopropylphenyl)-5-hydroxy-4H-1,2,4-triazol-4-yl)phenyl)piperazin-1-yl)ethan-1-one], for which the pIC50 in series [1] and in series [3] was 6.00 to 7.00 each time. Moreover, the IC50 at 72 h in series [2] was < 100 nM.
For the compound `Cc1sc2c(c1C)C(c1ccc(Cl)cc1)=N[C@@H](CC(=O)N1CCC(CCN3CCC(Cc4ccc(-n5c(O)nnc5-c5cc(C(C)C)c(O)cc5O)cc4)CC3)CC1)c1nnc(C)n1-2` [Compound 80, (S)-2-(4-(4-chlorophenyl)-2,3,9-trimethyl-6H-thieno[3,2-f][1,2,4]triazolo[4,3-a][1,4]diazepin-6-yl)-1-(4-(2-(4-(4-(3-(2,4-dihydroxy-5-isopropylphenyl)-5-hydroxy-4H-1,2,4-triazol-4-yl)benzyl)piperidin-1-yl)ethyl)piperidin-1-yl)ethan-1-one, trifluoroacetic acid], the pIC50 was > 7.00 in series [1] and 6.00 to 7.00 in series [3]. For the same compound, in series [2], the IC50 at 72 h was < 100 nM.

For orientation: IC50 means the concentration at which inhibition is half-maximal. Higher therefore signals weaker potency.
